From US7605272B2, “IGF-1R inhibitor” (Kyowa Hakko Kirin Co., Ltd., priority 2005, dated 2009)
Where a name gives a salt, the structure may show the parent alone. Read-outs that look alike come from different tables or passages of the source.

Assays:
[1] = biological target: T1, IGF-1R (Homo sapiens, UniProt P08069); test: IGF-1R inhibitory activity (kinase reaction, time-resolved fluoroimmunoassay); type: biochemical; conditions: IGF-1R active recombinant enzyme, test compound 10 μmol/L
T1 construct: purchased Upstate Co. 14-465
How it was run: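 Compounds were tested at a single 10 μmol/L concentration. Each was incubated with recombinant IGF-1R (200 μg/L), 10 mmol/L ATP, MgCl2/MnCl2 and Na3VO4 (pH 7.5) on immobilized poly(Glu-Tyr) peptide for 30 min at 24° C. Eu-anti-phosphotyrosine time-resolved fluorescence (340/615 nm) gave relative activity against no-compound and no-enzyme wells, reported as % inhibition.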

[2] = test system: NCI-H929; test: Cytostatic activity on human multiple myeloma cell line NCI-H929 (WST-1); type: cell-based; conditions: for inhibition at 1 µM / inhibition at 10 µM: Homo sapiens, NCI-H929, 72 h; for inhibition at 1 µM: read-out: cytostatic rate (%) H929 (1 μmol/L); for inhibition at 10 µM: read-out: cytostatic rate (%) H929 (10 μmol/L)
How it was run: (§1)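 Cells pre-cultured 24 h at 37 °C, 5% CO2, then exposed 72 h to compound at final 1 or 10 μmol/L (0.1% DMSO). WST-1 added for 2 h, absorbance at 450 nm (ref 690 nm). Cytostatic rate = 100 minus relative growth, with DMSO control as 100% and blank as 0%.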

[3] = test system: KMS-11; test: Cytostatic activity on human multiple myeloma cell line KMS-11 (WST-1); type: cell-based; conditions: for inhibition at 1 µM / inhibition at 10 µM: Homo sapiens, KMS-11, 72 h; for inhibition at 1 µM: read-out: cytostatic rate (%) KMS-11 (1 μmol/L); for inhibition at 10 µM: read-out: cytostatic rate (%) KMS-11 (10 μmol/L)
How it was run: as §1

T1 sequence (P08069 959-1367 limits assumed): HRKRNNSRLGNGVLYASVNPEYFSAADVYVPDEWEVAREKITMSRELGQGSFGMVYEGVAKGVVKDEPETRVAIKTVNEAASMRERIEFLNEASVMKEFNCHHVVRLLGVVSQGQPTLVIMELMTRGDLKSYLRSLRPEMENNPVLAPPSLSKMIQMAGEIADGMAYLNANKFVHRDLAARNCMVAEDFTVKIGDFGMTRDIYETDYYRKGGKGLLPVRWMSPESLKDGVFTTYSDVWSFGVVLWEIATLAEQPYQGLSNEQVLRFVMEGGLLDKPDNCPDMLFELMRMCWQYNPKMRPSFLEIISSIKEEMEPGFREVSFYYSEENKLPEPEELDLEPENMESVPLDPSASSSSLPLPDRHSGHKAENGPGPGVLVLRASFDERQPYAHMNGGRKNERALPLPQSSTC

COc1c(OCC(=O)N2CCOCC2)ccc(/C=C/c2n[nH]c3ccccc23)c1NC(=O)c1sccc1C [Compound 335, (E)-N-{6-[2-(1H-indazol-3-yl)vinyl]-2-methoxy-3-(2-morpholin-4-yl-2-oxoethoxy)phenyl}-3-methylthiophene-2-carboxamide] gave an inhibition at 10 µM [1] of 102%, an inhibition at 1 µM ([2]; NCI-H929 cells, test compound 1 μmol/L, WST-1) of 117% and an inhibition at 1 µM ([3]; KMS-11 cells, test compound 1 μmol/L, WST-1) of 110%.

Molecule O=C(Cc1cccs1)Nc1ccccc1/C=C/c1n[nH]c2ccccc12 [Compound 25, (E)-N-{2-[2-(1H-indazol-3-yl)vinyl]phenyl}-2-(thiophen-2-yl)acetamide] has an inhibition at 10 µM [1] of 86%, an inhibition at 10 µM ([2]; 10 μmol/L, 72 hours) of 116% and an inhibition at 10 µM ([3]; 10 μmol/L, 72 hours) of 106%.

For Cc1ccsc1C(=O)Nc1cc(N2CCN(CCO)CC2)ccc1/C=C/c1n[nH]c2ccccc12 [Compound 273, (E)-N-{5-[4-(2-hydroxyethyl)piperazin-1-yl]-2-[2-(1H-indazol-3-yl)vinyl]phenyl}-3-methylthiophene-2-carboxamide], the inhibition at 10 µM [1] was 104%, the inhibition at 1 µM ([2]; 1 μmol/L, 72 hours) was 115% and the inhibition at 1 µM ([3]; 1 μmol/L, 72 hours) was 111%.

For Cc1ccsc1C(=O)Nc1cc(C(=O)N2CCN(C=O)CC2)ccc1/C=C/c1n[nH]c2ccccc12 [Compound 218, (E)-N-{2-[2-(1H-indazol-3-yl)vinyl]-5-(4-formylpiperazin-1-ylcarbonyl)phenyl}-3-methylthiophene-2-carboxamide hydrochloride], the inhibition at 10 µM [1] was 98.6%, the inhibition at 1 µM ([2]; 1 μmol/L, 72 hours) was 112% and the inhibition at 1 µM ([3]; 1 μmol/L, 72 hours) was 106%.

CC(C)C(=O)Nc1ccccc1/C=C/c1n[nH]c2ccccc12 [Compound 18, (E)-N-{2-[2-(1H-indazol-3-yl)vinyl]phenyl}isobutylamide] was tested, and the “inhibitory activity (%) at 10 μmol/L” value [1] was 96.4%, the “cytostatic rate (%) H929 (10 μmol/L)” value ([2]; 10 μmol/L, 72 hours) was 112.7% and the “cytostatic rate (%) KMS-11 (10 μmol/L)” value ([3]; 10 μmol/L, 72 hours) was 124.1%.

In the case of O=C(Nc1ccccc1/C=C/c1n[nH]c2ccccc12)c1cccc([N+](=O)[O-])c1 [Compound 64, (E)-N-{2-[2-(1H-indazol-3-yl)vinyl]phenyl}-3-nitrobenzamide], the inhibition at 10 µM [1] is reported as 97%, the inhibition at 10 µM ([2]; 10 μmol/L, 72 hours) is reported as 108% and the inhibition at 10 µM ([3]; 10 μmol/L, 72 hours) is reported as 124%.

Work on Nc1cccc(C(=O)Nc2ccccc2/C=C/c2n[nH]c3ccccc23)c1 [Compound 69, (E)-3-amino-N-{2-[2-(1H-indazol-3-yl)vinyl]phenyl}benzamide] yielded an inhibition at 10 µM [1] of 101%, an inhibition at 10 µM ([2]; 10 μmol/L, 72 hours) of 116% and an inhibition at 10 µM ([3]; 10 μmol/L, 72 hours) of 114%.

Cn1cc(N)cc1C(=O)Nc1ccccc1/C=C/c1n[nH]c2ccccc12 [Compound 76, (E)-4-amino-N-{2-[2-(1H-indazol-3-yl)vinyl]phenyl}-1-methyl-1H-pyrrole-2-carboxamide trifluoroacetate] was tested, and the inhibition at 10 µM [1] was 99.2%, the inhibition at 10 µM ([2]; 10 μmol/L, 72 hours) was 109% and the inhibition at 10 µM ([3]; 10 μmol/L, 72 hours) was 126%.

Molecule COc1cc(/C=C/c2n[nH]c3ccccc23)c(NC(=O)c2sccc2C)cc1OCCN1CCOCC1 [Compound 293, (E)-N-{2-[2-(1H-indazol-3-yl)vinyl]-4-methoxy-5-[2-(morpholin-4-yl)ethoxy]phenyl}-3-methylthiophene-2-carboxamide] has an inhibition at 10 µM [1] of 98.9%, an inhibition at 1 µM ([2]; 1 μmol/L, 72 hours) of 110% and an inhibition at 1 µM ([3]; 1 μmol/L, 72 hours) of 119%.

With COc1ccccc1C(=O)Nc1ccccc1/C=C/c1n[nH]c2ccccc12 [Compound 20, (E)-N-{2-[2-(1H-indazol-3-yl)vinyl]phenyl}-2-methoxybenzamide] the inhibition at 10 µM [1] was 97.3%, the inhibition at 10 µM ([2]; 10 μmol/L, 72 hours) was 130% and the inhibition at 10 µM ([3]; 10 μmol/L, 72 hours) was 107%.

Molecule COCCN(C)Cc1ccc(/C=C/c2n[nH]c3ccccc23)c(NC(=O)c2sccc2C)c1 [Compound 252, (E)-N-{2-[2-(1H-indazol-3-yl)vinyl]-5-[N-(2-methoxyethyl)methylaminomethyl]phenyl}-3-methylthiophene-2-carboxamide] has an inhibition at 10 µM [1] of 101%, an inhibition at 1 µM ([2]; 1 μmol/L, 72 hours) of 120% and an inhibition at 1 µM ([3]; 1 μmol/L, 72 hours) of 113%.

Work on Cc1ccccc1C(=O)Nc1ccccc1/C=C/c1n[nH]c2ccccc12 [Compound 30, (E)-N-{2-[2-(1H-indazol-3-yl)vinyl]phenyl}-2-methylbenzamide] yielded an inhibition at 10 µM [1] of 97.6%, an inhibition at 10 µM ([2]; 10 μmol/L, 72 hours) of 115% and an inhibition at 10 µM ([3]; 10 μmol/L, 72 hours) of 115%.
